In general, IC50 refers to the midpoint of a concentration-inhibition curve.

Residues, ends and D or L forms follow the SMILES beside them. *: point of attachment. MeOSuc = COC(=O)CCC(=O)*; CH2Cl = ClC*

In one series the target is T1, Neutrophil elastase (Homo sapiens, UniProt P08246).
T1 sequence (P08246 whole entry): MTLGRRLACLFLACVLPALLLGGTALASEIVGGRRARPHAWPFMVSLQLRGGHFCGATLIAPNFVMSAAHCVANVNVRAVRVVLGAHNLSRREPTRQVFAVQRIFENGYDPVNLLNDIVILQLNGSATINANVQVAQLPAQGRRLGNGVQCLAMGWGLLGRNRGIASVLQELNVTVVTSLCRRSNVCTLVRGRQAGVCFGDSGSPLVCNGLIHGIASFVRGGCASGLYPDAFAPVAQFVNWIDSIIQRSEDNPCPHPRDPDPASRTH
Put plainly: Inhibition of human neutrophil elastase using N-MeOSuc-Ala-Ala-Pro-Val-p-nitroanilide as substrate incubated for 30 mins prior to substrate addition measured for 60 mins by chromogenic 96 well microplate assay.

Series [1] has as its target T2, Neutrophil elastase (Homo sapiens) (UniProt P08246).
T2 sequence (whole entry): T1 sequence (P08246 whole entry)
Briefly: Competitive inhibition of human neutrophil elastase assessed as product formation using N-MeOSuc-Ala-Ala-Pro-Val-p-nitroanilide as substrate measured for 120 mins by chromogenic 96 well microplate assay.

The target of the next series is Pancreatic elastase (Sus scrofa, UniProt P08419+P00772). Put plainly: Inhibition of porcine pancreatic elastase using MeO-Suc-Ala-Ala-Pro-Val-AMC as substrate incubated for 30 mins prior to substrate addition measured for 30 mins by incubation method based fluorescence analysis. The class given is protein assay.
For a further series, the target named is T3, Cathepsin G (Homo sapiens, UniProt P08311).
T3 sequence (P08311 whole entry): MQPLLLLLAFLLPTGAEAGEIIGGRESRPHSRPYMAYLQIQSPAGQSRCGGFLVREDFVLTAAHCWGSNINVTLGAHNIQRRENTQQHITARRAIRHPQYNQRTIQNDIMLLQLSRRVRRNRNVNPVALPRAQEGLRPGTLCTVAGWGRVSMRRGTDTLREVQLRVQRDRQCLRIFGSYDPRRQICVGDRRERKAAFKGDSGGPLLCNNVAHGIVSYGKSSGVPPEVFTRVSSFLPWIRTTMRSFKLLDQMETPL
Put plainly: Inhibition of cathepsin G in human neutrophil using Suc-Ala-Ala-Pro-Phe-p-nitroanilide as chromogenic substrate incubated for 30 mins prior to substrate addition measured for 30 mins by progress curve method.

The target of a further series is T4, Myeloblastin (Homo sapiens, UniProt P24158).
T4 sequence (P24158 whole entry): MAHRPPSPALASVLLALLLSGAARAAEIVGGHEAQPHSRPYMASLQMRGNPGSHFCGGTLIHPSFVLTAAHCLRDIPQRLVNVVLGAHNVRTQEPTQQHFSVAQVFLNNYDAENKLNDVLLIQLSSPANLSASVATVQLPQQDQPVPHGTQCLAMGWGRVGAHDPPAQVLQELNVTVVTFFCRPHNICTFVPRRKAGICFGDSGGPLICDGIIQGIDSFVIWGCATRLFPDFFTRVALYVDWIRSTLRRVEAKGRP
Briefly: Inhibition of proteinase 3 in human neutrophil using N-MeOSuc-Ala-Ala-Pro-Val-p-nitroanilide as chromogenic substrate measured for 60 mins by chromogenic assay.

Series [2] is described as follows: Cytotoxicity against mouse NIH/3T3 cells after 24 hrs. In kind it is cell-based. To be noted: NIH3T3, 24 h.
The test system of a further series is HEK-293T. Put plainly: Cytotoxicity against human HEK293T cells after 24 hrs. The class given is cell-based.
Series [3] can be described thus: Chemical stability of the compound in phosphate buffer at pH 7.4 assessed as compound remaining at 50 uM after 2 days by HPLC analysis. In kind it is physicochemical. To be noted: read-out: Stability.
A short description of series [4]: Chemical stability of the compound in phosphate buffer at pH 7.4 assessed as compound remaining at 100 uM after 2 days by HPLC analysis. In kind it is physicochemical. The note with it: read-out: Stability.
The nature of series [5]: Metabolic stability in human plasma assessed as compound remaining after 2 days by HPLC analysis. To be noted: read-out: Stability. The class given is ADME, cell-free.
A short description of series [6]: Metabolic stability in Sprague-Dawley rat pooled liver microsomes assessed as compound remaining after 2 days by HPLC analysis in presence of NADPH generating system. In kind it is ADME. The note with it: read-out: Stability.
Series [7] can be described thus: Metabolic stability in Sprague-Dawley rat pooled liver microsomes assessed as compound remaining after 2 days by HPLC analysis in absence of NADPH generating system. In kind it is ADME. The note with it: read-out: Stability.

For the compound `Cc1ccc(-n2c(COc3ccc4ccccc4c3)nnc2SCC(=O)O)cc1`, the IC50 on Neutrophil elastase (read-out: IC50) was over 100 µM.
On the same count and under the same terms, the figure for `O=C(O)CSc1nnc(CSc2nc3ccccc3s2)n1-c1ccccc1` is over 100 µM.
For `C=CCn1c(Cc2ccccc2)nnc1SCC(=O)Nc1nc(-c2ccccc2)cs1`, on Neutrophil elastase, the IC50 entry was “ND(Insoluble)”.
As to `COc1ccc(-n2c(COc3ccc4ccccc4c3)nnc2SCC(N)=O)cc1`, the IC50 on Neutrophil elastase (read-out: IC50) is over 100 µM.
The same measure, in the same setting: then `Oc1ccc2c(c1)Oc1ncn3nc(CO/N=C/c4ccccc4)nc3c1C2c1ccccc1` (stereo unspecified), with over 100 µM.
As for `O=C(Oc1coc(CSc2nnc(NC(=O)C3CC3)s2)cc1=O)c1cccc(F)c1`, the IC50 at Neutrophil elastase (read-out: IC50) is 18.4 µM; against Pancreatic elastase, over 134 µM; on Cathepsin G it was over 134 µM; on Myeloblastin, over 134 µM; in series [2], over 134 µM; in the series on HEK-293T, over 134 µM. In [1], the inhibition result was “Dose-dependent effect”. For the same compound, the remaining at 48 h, 50 µM in series [3] was over 80%.
In the case of `Cc1occc1-c1nnc(SCC(=O)NCCc2ccccc2)n1C(C)c1ccccc1` (stereo unspecified), the IC50 at Neutrophil elastase (read-out: IC50) was over 100 µM.
Take `COC(=O)CCC(=O)N[C@@H](C)C(=O)N[C@@H](C)C(=O)N1CCC[C@H]1C(=O)N[C@@H](C)C(=O)CCl` (MeOSuc-AAPA-CH2Cl): the IC50 on Neutrophil elastase (read-out: IC50) amounted to 20.3 µM.
With `COc1ccc(C(=O)CSc2nnc(COc3ccccc3)n2Cc2ccccc2)cc1`, at Neutrophil elastase, the IC50 entry is listed as “ND(Insoluble)”.
With `O=C(Cc1cn2ccsc2n1)N/N=C/c1cn(-c2ccccc2)nc1-c1cccs1`, the IC50 entry on Neutrophil elastase is given as “ND(Insoluble)”.
Same read-out and setting: then `NC(=O)CSc1nnc2c3c4c(sc3nc(SCc3ccccc3)n12)CCCC4`, with “ND(Insoluble)”.
With `Nc1c(C(=O)NCc2cccs2)c2nc3ccccc3nc2n1/N=C/c1ccccn1`, the IC50 on Neutrophil elastase (read-out: IC50) worked out at 17.6 µM.
With `O=C(CSc1nnc(Cc2ccccc2)n1Cc1ccccc1)NCc1ccco1`, the IC50 on Neutrophil elastase (read-out: IC50) is over 100 µM.
As to `CCC(Sc1nc(-c2ccccc2)cc(-c2ccccc2)n1)C(=O)Nc1nnc(C)s1` (stereo unspecified), the IC50 entry against Neutrophil elastase is “ND(Insoluble)”.
For the compound `C=CCn1c(=O)c2ccccc2n2c(SCC(=O)NCc3cccs3)nnc12`, the IC50 entry on Neutrophil elastase is on record as “ND(Insoluble)”.
Regarding `COc1ccc(CCNC(=O)C(Sc2ccccn2)c2ccccc2)cc1OC` (stereo unspecified), the IC50 on Neutrophil elastase (read-out: IC50) is over 100 µM.
`COc1ccc(-n2c(COc3ccc4ccccc4c3)nnc2SCC(=O)O)cc1`: the IC50 on Neutrophil elastase (read-out: IC50) is over 100 µM.
Take `COC(=O)C(CSCc1ccccc1)NC(=O)CSc1nc2ccccc2[nH]1` (stereo unspecified): the IC50 on Neutrophil elastase (read-out: IC50) is over 100 µM.
On the same count and under the same terms, the figure for `CCOC(=O)C(CSCc1ccccc1)NC(=O)c1coc(-c2ccc(N)cc2)n1` (stereo unspecified) is 32.1 µM; for `NC(=O)CSc1nnc2c3c4c(sc3nc(SCc3ccccc3)n12)CCC4` it is over 100 µM.
Take `O=C(CSc1nc2ccccc2n1Cc1ccccc1F)NCc1ccc2c(c1)OCO2`: the IC50 entry on Neutrophil elastase is “ND(Insoluble)”.
On the same count and under the same terms, then `Cc1sc(NC(=O)CSc2nnc(Cc3ccccc3)n2C)nc1-c1ccccc1`, with “ND(Insoluble)”.
For `Nc1nnc(SC(C(=O)Nc2cc(Cl)cc(Cl)c2)c2ccccc2)[nH]1` (stereo unspecified), the IC50 is 26.9 µM on Neutrophil elastase (read-out: IC50); over 139 µM against Pancreatic elastase; over 139 µM on Cathepsin G; over 139 µM against Myeloblastin; over 139 µM in series [2]; over 139 µM in the series on HEK-293T. Also, the inhibition result in series [1] is “Dose-dependent effect”. Besides, the remaining at 48 h, 100 µM in series [4] was over 80%. Further, the remaining at 48 h in series [5], in series [6] and in series [7] was over 80% in each case.
For the compound `CCC(N)c1nc(C(=O)NC(Cc2ccccc2)C(=O)OCc2ccccc2)co1` (stereo unspecified), on Neutrophil elastase (read-out: IC50), the IC50 is over 100 µM.
Regarding `O=C(NCc1ccccc1)c1ccc2nc(-c3ccccn3)c(-c3ccccn3)nc2c1`, the IC50 on Neutrophil elastase (read-out: IC50) is over 100 µM.
The same measure, in the same setting: the figure for `O=C(CSc1nnc2scc(-c3ccc(Cl)cc3)n12)NCc1cccnc1` is over 100 µM; for `O=C(CSc1nnc(C2CC2)n1Cc1ccccc1)NCc1ccccc1` it is over 100 µM.
As for `c1ccc(-c2noc(CSc3nnc(Cc4cccs4)n3-c3ccccc3)n2)cc1`, the IC50 entry on Neutrophil elastase is “ND(Insoluble)”.
Take `COc1ccc(C(=O)CSc2nnc(COc3ccccc3)n2Cc2ccco2)cc1`: the IC50 result against Neutrophil elastase is on record as “ND(Insoluble)”.
